Where two headings read alike, the source gives them in different places.
Key:
Assay type in all cases: in vivo
[1] = tested on: barnyardgrass (Echinochloa crus-galli); test: Test A pre/postemergence; details: Echinochloa crus-galli, 240 h, read-out: Plant response rating, Barnyardgrass; for pest or weed control at 125 g/ha: 125 g ai/ha; for pest or weed control at 500 g/ha: 500 g ai/ha
How it was run: (§1)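 Pre/post greenhouse screen; loam/sand soil; solvent + surfactant formulation; pre = directed soil spray at planting, post = 1–2 leaf plants, 2–10 cm; ~10 d; visual 0–100 rating vs untreated.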

[2] = tested on: crabgrass (Digitaria sanguinalis); test: Test A pre/postemergence; details: Digitaria sanguinalis, 240 h, read-out: Plant response rating, Crabgrass; for pest or weed control at 125 g/ha: 125 g ai/ha; for pest or weed control at 500 g/ha: 500 g ai/ha
How it was run: as §1

[3] = tested on: pigweed (Amaranthus retroflexus); test: Test C pre/postemergence; details: Amaranthus retroflexus, post-emergence, Postemergence
How it was run: (§2)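 Test compounds, formulated in a non-phytotoxic solvent mix with surfactant, were applied to freshly planted seeds and, at the same time, to emerged plants at 1- to 4-leaf stage (2 to 18 cm). After 12 to 14 days in the greenhouse, response was scored visually versus controls, 0 = no effect, 100 = complete control.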

[4] = tested on: velvetleaf (Abutilon theophrasti); test: Test C pre/postemergence; details: Abutilon theophrasti, post-emergence, Postemergence
How it was run: as §2

[5] = tested on: common ragweed (Ambrosia elatior); test: Test C pre/postemergence; details: Ambrosia artemisiifolia, post-emergence, Postemergence
How it was run: as §2

[6] = tested on: woolly cupgrass (Eriochloa villosa); test: Test C pre/postemergence; details: Eriochloa villosa, post-emergence, Postemergence
How it was run: as §2

[7] = tested on: yellow nutsedge (Cyperus esculentus); test: Test C pre/postemergence; details: Cyperus, post-emergence, Postemergence
How it was run: as §2

[8] = tested on: goosegrass (Eleusine indica); test: Test C pre/postemergence; details: Eleusine indica, post-emergence, Postemergence
How it was run: as §2

[9] = tested on: bermudagrass (Cynodon dactylon); test: Test C pre/postemergence; details: Cynodon dactylon, post-emergence, Postemergence
How it was run: as §2

[10] = tested on: chickweed (Stellaria media); test: Test C postemergence; details: Stellaria media, post-emergence
How it was run: as §2

[11] = post-emergence, Postemergence, 0 to 100 scale (0 no effect, 100 complete control)
[12] = pre-emergence, Preemergence, 0 to 100 scale where 0 is no effect and 100 is complete control, approximately ten days

## CCOC(=O)c1nc(-c2ccc(Br)cc2)nc(N)c1Cl [Compound 94, ethyl 6-amino-2-(4-bromophenyl)-5-chloro-4-pyrimidinecarboxylate]
[1]; [11]
  pest or weed control at 125 g/ha: 30%
  pest or weed control at 500 g/ha: 60%
[1]; [12]
  pest or weed control at 125 g/ha: 5%
  pest or weed control at 500 g/ha: 40%
[2]; [11]
  pest or weed control at 125 g/ha: 35%
  pest or weed control at 500 g/ha: 50%
[2]; [12]
  pest or weed control at 125 g/ha: 45%
  pest or weed control at 500 g/ha: 55%
[3]; 16 g ai/ha, read-out: Plant response rating (scale of 0 to 100), Pigweed
  pest or weed control at 16 g/ha: 95%
[3]; 31 g ai/ha, read-out: Plant response rating (scale of 0 to 100), Pigweed
  pest or weed control at 31 g/ha: 100%
[3]; 62 g ai/ha, read-out: Plant response rating (scale of 0 to 100), Pigweed
  pest or weed control at 62 g/ha: 100%
[3]; 125 g ai/ha, scale 0 to 100 (0 no effect, 100 complete control), read-out: Pigweed plant response rating
  pest or weed control at 125 g/ha: 100%
[4]; 16 g ai/ha, read-out: Plant response rating (scale of 0 to 100), Velvetleaf
  pest or weed control at 16 g/ha: 75%
[4]; 31 g ai/ha, read-out: Plant response rating (scale of 0 to 100), Velvetleaf
  pest or weed control at 31 g/ha: 90%
[4]; 62 g ai/ha, read-out: Plant response rating (scale of 0 to 100), Velvetleaf
  pest or weed control at 62 g/ha: 95%
[4]; 125 g ai/ha, scale 0 to 100 (0 no effect, 100 complete control), read-out: Velvetleaf plant response rating
  pest or weed control at 125 g/ha: 95%
[5]; 16 g ai/ha, read-out: Plant response rating (scale of 0 to 100), Ragweed
  pest or weed control at 16 g/ha: 90%
[5]; 31 g ai/ha, read-out: Plant response rating (scale of 0 to 100), Ragweed
  pest or weed control at 31 g/ha: 90%
[5]; 62 g ai/ha, read-out: Plant response rating (scale of 0 to 100), Ragweed
  pest or weed control at 62 g/ha: 95%
[5]; 125 g ai/ha, scale 0 to 100 (0 no effect, 100 complete control), read-out: Ragweed plant response rating
  pest or weed control at 125 g/ha: 100%
[6]; 16 g ai/ha, read-out: Plant response rating (scale of 0 to 100), Cupgrass, Woolly
  pest or weed control at 16 g/ha: 60%
[6]; 31 g ai/ha, read-out: Plant response rating (scale of 0 to 100), Cupgrass, Woolly
  pest or weed control at 31 g/ha: 80%
[6]; 62 g ai/ha, read-out: Plant response rating (scale of 0 to 100), Cupgrass, Woolly
  pest or weed control at 62 g/ha: 90%
[6]; 125 g ai/ha, scale 0 to 100 (0 no effect, 100 complete control), read-out: Cupgrass, Woolly plant response rating
  pest or weed control at 125 g/ha: 90%
[7]; 16 g ai/ha, read-out: Plant response rating (scale of 0 to 100), Nutsedge, Yellow
  pest or weed control at 16 g/ha: 55%
[7]; 31 g ai/ha, read-out: Plant response rating (scale of 0 to 100), Nutsedge, Yellow
  pest or weed control at 31 g/ha: 60%
[7]; 62 g ai/ha, read-out: Plant response rating (scale of 0 to 100), Nutsedge, Yellow
  pest or weed control at 62 g/ha: 70%
[7]; 125 g ai/ha, scale 0 to 100 (0 no effect, 100 complete control), read-out: Nutsedge, Yellow plant response rating
  pest or weed control at 125 g/ha: 75%
[8]; 16 g ai/ha, read-out: Plant response rating (scale of 0 to 100), Goosegrass
  pest or weed control at 16 g/ha: 35%
[8]; 31 g ai/ha, read-out: Plant response rating (scale of 0 to 100), Goosegrass
  pest or weed control at 31 g/ha: 60%
[8]; 62 g ai/ha, read-out: Plant response rating (scale of 0 to 100), Goosegrass
  pest or weed control at 62 g/ha: 80%
[8]; 125 g ai/ha, scale 0 to 100 (0 no effect, 100 complete control), read-out: Goosegrass plant response rating
  pest or weed control at 125 g/ha: 80%
[9]; 16 g ai/ha, read-out: Plant response rating (scale of 0 to 100), Bermudagrass
  pest or weed control at 16 g/ha: 60%
[9]; 31 g ai/ha, read-out: Plant response rating (scale of 0 to 100), Bermudagrass
  pest or weed control at 31 g/ha: 70%
[9]; 62 g ai/ha, scale 0 to 100 (0 no effect, 100 complete control), read-out: Bermudagrass plant response rating
  pest or weed control at 62 g/ha: 75%
[9]; 125 g ai/ha, scale 0 to 100 (0 no effect, 100 complete control), read-out: Bermudagrass plant response rating
  pest or weed control at 125 g/ha: 80%
[10]; 31 g ai/ha, read-out: Plant response rating (scale of 0 to 100), Chickweed
  pest or weed control at 31 g/ha: 45%
[10]; 62 g ai/ha, read-out: Plant response rating (scale of 0 to 100), Chickweed
  pest or weed control at 62 g/ha: 50%
[10]; 125 g ai/ha, scale 0 to 100 (0 no effect, 100 complete control), read-out: Chickweed plant response rating
  pest or weed control at 125 g/ha: 95%

— US8802597B2, “Herbicidal pyrimidines” (E I du Pont de Nemours and Company, priority 2003, dated 2014)
